Experimental data published in US20100144760A1, “NOVEL COMPOUNDS” (priority 2008, published 2010).
Ends that are not written are not given here.

Experiments:
[1] = target: T1, human Orexin-2 receptor (Homo sapiens, UniProt O43614); assay: Antagonist affinity at human Orexin-2 receptor using FLIPR ([Ca2+]i); format: cell-based; conditions: functional pKi from IC50 by modified Cheng-Prusoff correction, read-out: fpKi Orexin 2 receptor (converted)
T1 construct: expressed in transfected cells
T1 sequence (O43614 1-444): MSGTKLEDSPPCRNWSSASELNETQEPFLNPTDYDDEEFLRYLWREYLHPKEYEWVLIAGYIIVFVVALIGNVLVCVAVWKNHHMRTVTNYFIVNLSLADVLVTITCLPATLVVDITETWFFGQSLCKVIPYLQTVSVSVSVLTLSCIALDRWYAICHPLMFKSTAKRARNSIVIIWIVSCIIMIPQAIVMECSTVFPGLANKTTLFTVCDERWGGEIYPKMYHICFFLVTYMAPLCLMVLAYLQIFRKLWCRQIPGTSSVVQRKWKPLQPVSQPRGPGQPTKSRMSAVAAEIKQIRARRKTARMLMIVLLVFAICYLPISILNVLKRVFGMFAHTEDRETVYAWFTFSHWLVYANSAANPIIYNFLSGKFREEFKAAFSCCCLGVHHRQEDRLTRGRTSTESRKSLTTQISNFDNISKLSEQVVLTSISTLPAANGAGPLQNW
Text: (§1) Determination of antagonist affinity at human Orexin-1 and 2 receptors using FLIPR
(§2) Adherent Chinese Hamster Ovary (CHO) cells, stably expressing the recombinant human Orexin-1 or human Orexin-2 receptors or Rat Basophilic Leukaemia Cells (RBL) stably expressing recombinant rat Orexin-1 or rat Orexin-2 receptors were maintained in culture in Alpha Minimum Essential Medium (Gibco/Invitrogen, cat. no.; 22571-020), supplemented with 10% decomplemented foetal bovine serum (Life Technologies, cat. no. 10106-078) and 400 μg/mL Geneticin G418 (Calbiochem, cat. no. 345810). Cells were grown as monolayers under 95%:5% air: CO2 at 37° C.
(§3) The sequences of the human orexin 1, human orexin 2, rat orexin 1 and rat orexin 2 receptors used in this example were as published in Sakurai, T. et al (1998) Cell, 92 pp 573 to 585. Some examples were tested against the human orexin 1 receptor as published in Sakurai et al supra with the exception that the amino acid residue at position 280 was alanine and not glycine.
(§4) Cells were seeded into black clear-bottom 384-well plates (density of 20,000 cells per well) in culture medium as described above and maintained overnight (95%:5% air:CO2 at 37° C.). On the day of the experiment, culture medium were discarded and the cells washed three times with standard buffer (NaCl, 145 mM; KCl, 5 mM; HEPES, 20 mM; Glucose, 5.5 mM; MgCl2, 1 mM; CaCl2, 2 mM) added with Probenecid 2.5 mM. The plates were then incubated at 37° C. for 60 minutes in the dark with 2 μM FLUO-4AM dye to allow cell uptake of the FLUO-4AM, which is subsequently converted by intracellular esterases to FLUO-4, which is unable to leave the cells. After incubation, cells were washed three times with standard buffer to remove extracellular dye and 30 μL of buffer were left in each well after washing.
(§5) Compounds of the invention were tested in a final assay concentration range from 1.66×10^−5M to 1.58×10^−11M. Compounds of the invention were dissolved in dimethylsulfoxide (DMSO) at a stock concentration of 10 mM. These stock solutions were serially diluted with DMSO and 1 μL of each dilution was transferred to a 384 well compound plate. Immediately before introducing compound to the cells, buffer solution (50 μl/well) was added to this plate. To allow agonist stimulation of the cells, a stock plate containing a solution of human orexin A (hOrexin A) was diluted with buffer to final concentration just before use. This final concentration of hOrexin A was equivalent to the calculated EC80 for hOrexinA agonist potency in this test system. This value was obtained by testing hOrexinA in concentration response curve (at least 16 replicates) the same day of the experiment.
(§6) The loaded cells were then incubated for 10 min at 37° C. with test compound. The plates were then placed into a FLIPR™ (Molecular Devices, UK) to monitor cell fluorescence (λex=488 nm, λEM=540 nm) (Sullivan E, Tucker E M, Dale I L. Measurement of [Ca^2+]i using the fluometric imaging plate reader (FLIPR). In: Lambert DG (ed.), Calcium Signaling Protocols. New Jersey: Humana Press, 1999, 125-136). A baseline fluorescence reading was taken over a 5 to 10 second period, and then 10 μL of EC80 hOrexinA solution was added. The fluorescence was then read over a […] period.
(§7) Functional responses using FLIPR were measured as peak fluorescence intensity minus basal fluorescence and expressed as a percentage of a non-inhibited Orexin-A-induced response on the same plate. Iterative curve-fitting and parameter estimations were carried out using a four parameter logistic model and Microsoft Excel (Bowen W P, Jerman J C. Nonlinear regression using spreadsheets. Trends Pharmacol. Sci. 1995; 16: 413-417).

[2] = target: T2, human Orexin-1 receptor (Homo sapiens, UniProt O43613); assay: Antagonist affinity at human Orexin-1 receptor using FLIPR ([Ca2+]i); format: cell-based; conditions: functional pKi from IC50 by modified Cheng-Prusoff correction
T2 sequence (O43613 1-425 A280G): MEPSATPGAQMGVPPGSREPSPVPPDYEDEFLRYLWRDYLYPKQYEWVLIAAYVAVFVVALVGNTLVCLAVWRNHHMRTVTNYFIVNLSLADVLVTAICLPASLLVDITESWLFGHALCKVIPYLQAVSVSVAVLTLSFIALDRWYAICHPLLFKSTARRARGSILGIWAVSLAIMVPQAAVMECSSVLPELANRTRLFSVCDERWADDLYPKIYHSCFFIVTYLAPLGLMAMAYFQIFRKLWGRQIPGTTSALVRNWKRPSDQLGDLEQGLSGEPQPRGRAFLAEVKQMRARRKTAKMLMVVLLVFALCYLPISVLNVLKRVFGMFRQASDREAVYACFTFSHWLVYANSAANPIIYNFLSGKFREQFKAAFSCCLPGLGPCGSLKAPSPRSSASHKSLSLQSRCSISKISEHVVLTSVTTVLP
Text: as §1, §2, §3, §4, §5, §6
as §7, with “413-417). […]” for “413-417).”

[3] = tested on: rats; conditions: cited from earlier work
[4] = tested on: rats; conditions: cited from earlier work; remark: listed apart in the source
[5] = tested on: rats; conditions: central administration at the onset of the normal sleep period; cited from earlier work
[6] = tested on: freely-feeding rats; conditions: central administration, 4 hour time period; cited from earlier work

Compound	Ki [1] [nM]	fpKi Orexin 1 receptor [2]	further results
Cc1ccc(-c2ncccc2C)c(C(=O)N2C[C@@H]3C[C@@H]3C[C@H]2CNc2ccc(C(F)(F)F)cn2)n1 [Example 51, N-({(1R,4S,6R)-3-[(3,6′-dimethyl-2,3′-bipyridin-2′-yl)carbonyl]-3-azabicyclo[4.1.0]hept-4-yl}methyl)-5-(trifluoromethyl)-2-pyridinamine]	15.8	9.2	
Cc1cnn(-c2ccc(C)nc2C(=O)N2C[C@@H]3C[C@@H]3C[C@H]2CNc2ccc(C(F)(F)F)cn2)c1 [Example 52, N-[((1R,4S,6R)-3-{[6-methyl-3-(4-methyl-1H-pyrazol-1-yl)-2-pyridinyl]carbonyl}-3-azabicyclo[4.1.0]hept-4-yl)methyl]-5-(trifluoromethyl)-2-pyridinamine]	0.398	9.2	
Cc1ccc(C(=O)N2C[C@@H]3C[C@@H]3C[C@H]2CNc2ccc(C(F)(F)F)cn2)nc1-c1ncccn1 [Example 53, N-[((1R,4S,6R)-3-{[5-methyl-6-(2-pyrimidinyl)-2-pyridinyl]carbonyl}-3-azabicyclo[4.1.0]hept-4-yl)methyl]-5-(trifluoromethyl)-2-pyridinamine]	> 3310	6.0	
Cc1ccc(NC[C@@H]2C[C@H]3C[C@H]3CN2C(=O)c2nc(C)ccc2OCC2CC2)nc1 [Example 54, N-{[(1R,4S,6R)-3-({3-[(cyclopropylmethyl)oxy]-6-methyl-2-pyridinyl}carbonyl)-3-azabicyclo[4.1.0]hept-4-yl]methyl}-5-methyl-2-pyridinamine]	3.98	9.3	
CCOc1ccc(C)nc1C(=O)N1C[C@@H]2C[C@@H]2C[C@H]1CNc1ncc(C)cn1 [Example 55, N-[((1R,4S,6R)-3-{[3-(ethyloxy)-6-methyl-2-pyridinyl]carbonyl}-3-azabicyclo[4.1.0]hept-4-yl)methyl]-5-methyl-2-pyrimidinamine]	100	9.1	
Cc1nc2ccc(NC(=O)Nc3ccnc4cccnc34)cc2o1 [SB334867]			hedonic eating [3]: potently reduced; high-fat pellet self-administration [4]: attenuated
orexin-A: polypeptide ligand for the orexin-1 receptor; an agonist of the orexin receptors (QPLPDCCRQKTCSCRLYELLHGAGNHAAGILTL; ends and bridges not checked; cysteine pairing not given here; UniProt O43612 34-66, looked up)			arousal (sleep/EEG) [5]: dose-related increase in arousal; increase of food intake over control rats receiving vehicle [6]: approximately four-fold

Continued, in another order:

Ki [1] [nM]	fpKi Orexin 1 receptor [2]	Compound	further results
	9.5	CCOc1ccc(C)nc1C(=O)N1C[C@@H]2C[C@@H]2C[C@H]1CNc1ncc(C(F)(F)F)cn1 [Example 56, N-[((1R,4S,6R)-3-{[3-(ethyloxy)-6-methyl-2-pyridinyl]carbonyl}-3-azabicyclo[4.1.0]hept-4-yl)methyl]-5-(trifluoromethyl)-2-pyrimidinamine]	
63.1	9.5	CCCOc1ccc(C)nc1C(=O)N1C[C@@H]2C[C@@H]2C[C@H]1CNc1ncc(C(F)(F)F)cn1 [Example 57, N-[((1R,4S,6R)-3-{[6-methyl-3-(propyloxy)-2-pyridinyl]carbonyl}-3-azabicyclo[4.1.0]hept-4-yl)methyl]-5-(trifluoromethyl)-2-pyrimidinamine]	
1.26	9.0	CCCOc1ccc(C)nc1C(=O)N1C[C@@H]2C[C@@H]2C[C@H]1CNc1cnc(C)c(C)n1 [Example 58, 5,6-dimethyl-N-[((1R,4S,6R)-3-{[6-methyl-3-(propyloxy)-2-pyridinyl]carbonyl}-3-azabicyclo[4.1.0]hept-4-yl)methyl]-2-pyrazinamine]	
1580	6.0	Cc1coc(-c2ccc(C)nc2C(=O)N2C[C@@H]3C[C@@H]3C[C@H]2CNc2ncc(C(F)(F)F)cn2)n1 [Example 59, N-[((1R,4S,6R)-3-{[6-methyl-3-(4-methyl-1,3-oxazol-2-yl)-2-pyridinyl]carbonyl}-3-azabicyclo[4.1.0]hept-4-yl)methyl]-5-(trifluoromethyl)-2-pyrimidinamine]	
